Drawing on ChEMBL document CHEMBL5329194, “Design, Synthesis, and Evaluation of 18F-Labeling CYP1B1 PET Tracer Based on 2-Phenylquinazolin” (Bioorg Med Chem Lett, 2023), this text covers IC50, selectivity ratio and Drug uptake for 1 compound.

Data set [1] concerns the target T1, Cytochrome P450 1B1 (Homo sapiens, UniProt Q16678).
T1 sequence (Q16678 whole entry): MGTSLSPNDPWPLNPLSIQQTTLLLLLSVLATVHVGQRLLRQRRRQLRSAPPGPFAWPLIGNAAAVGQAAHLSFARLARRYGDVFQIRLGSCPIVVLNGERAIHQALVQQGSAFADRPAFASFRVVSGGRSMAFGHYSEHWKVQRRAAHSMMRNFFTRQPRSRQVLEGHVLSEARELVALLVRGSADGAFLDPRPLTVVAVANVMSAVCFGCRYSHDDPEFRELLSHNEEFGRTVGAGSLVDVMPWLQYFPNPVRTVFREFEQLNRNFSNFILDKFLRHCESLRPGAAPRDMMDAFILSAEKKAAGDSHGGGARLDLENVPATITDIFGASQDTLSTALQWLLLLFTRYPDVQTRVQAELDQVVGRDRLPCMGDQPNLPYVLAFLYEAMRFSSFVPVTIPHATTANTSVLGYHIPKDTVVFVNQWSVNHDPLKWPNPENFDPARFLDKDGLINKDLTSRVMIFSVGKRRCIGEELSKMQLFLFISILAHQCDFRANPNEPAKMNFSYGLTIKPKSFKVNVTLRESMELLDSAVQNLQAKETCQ
The data set can be described thus: Inhibition of CYP1B1 (unknown origin) by EROD assay. The data set is classed as ADME.

Data set [2] addresses T2, Cytochrome P450 1A1 (Homo sapiens, UniProt P04798).
T2 sequence (P04798 whole entry): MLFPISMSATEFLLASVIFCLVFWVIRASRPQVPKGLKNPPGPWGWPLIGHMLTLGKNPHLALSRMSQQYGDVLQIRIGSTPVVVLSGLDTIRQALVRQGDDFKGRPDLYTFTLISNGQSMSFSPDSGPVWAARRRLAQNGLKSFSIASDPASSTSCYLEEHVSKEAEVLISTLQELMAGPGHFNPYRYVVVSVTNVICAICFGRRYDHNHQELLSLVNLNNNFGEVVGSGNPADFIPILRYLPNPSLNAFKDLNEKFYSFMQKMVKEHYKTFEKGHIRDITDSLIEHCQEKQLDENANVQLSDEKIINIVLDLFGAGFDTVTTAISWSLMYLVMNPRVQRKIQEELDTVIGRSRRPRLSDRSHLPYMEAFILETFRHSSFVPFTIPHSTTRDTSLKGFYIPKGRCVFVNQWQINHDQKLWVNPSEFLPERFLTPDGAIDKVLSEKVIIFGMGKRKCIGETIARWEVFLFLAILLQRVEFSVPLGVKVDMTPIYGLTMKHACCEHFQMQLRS
As to the kind of experiment: Inhibition of CYP1A1 (unknown origin). Type of data set: ADME.

The target in data set [3] is T3, Cytochrome P450 1A2 (Homo sapiens, UniProt P05177).
T3 sequence (P05177 whole entry): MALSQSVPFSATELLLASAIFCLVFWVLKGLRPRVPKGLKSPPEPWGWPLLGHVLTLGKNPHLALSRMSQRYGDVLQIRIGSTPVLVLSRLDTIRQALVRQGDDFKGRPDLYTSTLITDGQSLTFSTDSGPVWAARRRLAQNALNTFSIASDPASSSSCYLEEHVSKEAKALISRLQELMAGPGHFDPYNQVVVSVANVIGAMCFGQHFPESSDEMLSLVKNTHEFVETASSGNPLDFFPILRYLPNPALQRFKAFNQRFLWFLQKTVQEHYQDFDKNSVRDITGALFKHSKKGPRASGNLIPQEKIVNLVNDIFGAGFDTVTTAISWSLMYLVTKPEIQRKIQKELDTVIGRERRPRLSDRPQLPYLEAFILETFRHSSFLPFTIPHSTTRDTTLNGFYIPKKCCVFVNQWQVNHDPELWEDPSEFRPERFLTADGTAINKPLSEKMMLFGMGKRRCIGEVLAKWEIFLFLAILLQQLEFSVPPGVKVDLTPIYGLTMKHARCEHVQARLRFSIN
As to the kind of experiment: Inhibition of CYP1A2 (unknown origin). The data set is classed as ADME.

The test system of data set [4] is CYP1A1 versus CYP1B1. The data set can be described thus: Selectivity ratio of IC50 for inhibition of CYP1A1 (unknown origin) to IC50 for inhibition of CYP1B1 (unknown origin). The data set is classed as ADME. The following applies: human; read-out: Ratio IC50.
The test system of data set [5] is CYP1A2 versus CYP1B1. The data set can be described thus: Selectivity ratio of IC50 for inhibition of CYP1A2 (unknown origin) to IC50 for inhibition of CYP1B1 (unknown origin). The following applies: human; read-out: Ratio IC50. The data set is classed as ADME.
Data set [6] in a line: Drug uptake in human MCF7 cells measured after 30 mins. Type of data set: ADME, cell-based. To be noted: mcf7, 0.5 h.
The nature of data set [7]: Drug uptake in human HCT-15 cells measured after 30 mins. Type of data set: ADME, cell-based. To be noted: hct-15, 0.5 h.

By IC50 is commonly meant the concentration that gives 50% inhibition. A higher IC50 goes with weaker potency. Regarding `FCCOCCOCCOc1nc(-c2ccc(Br)cc2)nc2ccccc12`, the 50% inhibitory concentration (IC50) was 0.0482 µM in data set [1], > 1 µM in data set [2] and > 1 µM in data set [3]. Besides, the selectivity ratio in data set [4] and in data set [5] was > 20.7 throughout. The Drug uptake came out at 21.56% in data set [6] and 25.61% in data set [7].
